Test results as given in paper PMC7760514, “Fatty Acid Conjugation Leads to Length-Dependent Antimicrobial Activity of a Synthetic Antibacterial Peptide (Pep19-4LF)” (Antibiotics, 2020).
Values after ≈ are worked out from the molar mass of the structure shown. Peptide text beside a SMILES is read from it. * marks the point of attachment. Hexanoyl = CCCCCC(=O)*

What was measured:
[1] = test system: Rothia kristinae (DSM 20032); assay: Minimal inhibitory concentration (MIC), broth microdilution; assay type: cell-based; conditions: Table 3 of supplement, n=3; unit inferred; 37 ± 1 °C
Protocol: (§1) Minimal inhibitory concentrations (MICs) were determined against Gram-positive Enterococcus faecium vanA (UL 602570*, clinical isolate from Institute for Medical Microbiology and Hygiene, Heidelberg University Hospital, Heidelberg, Germany), Staphylococcus aureus (ATCC 25923), Rothia kristinae (DSM 20032), and Gram-negative Acinetobacter bohemicus (DSM 100419) (all obtained from the Department of Infectious Diseases, Medical Microbiology and Hygiene, Heidelberg University, Heidelberg, Germany) in a 96-well polypropylene plate (650261 Greiner Bio-One GmbH, Frickenhausen, Germany) according to European Committee on Antimicrobial Susceptibility Testing (EUCAST) and The Clinical & Laboratory Standards Institute (CLSI) guidelines. Briefly, the stock solutions of the peptide conjugates in water were adjusted to a concentration of 1.28 mg/mL. Starting with the highest concentration of 64 μg/mL in 96-well polypropylene plates, dilution series in cation-adjusted Mueller–Hinton broth (MHB II; Sigma Aldrich, Steinheim, Germany) were performed, resulting in the lowest concentration of 0.125 μg/mL. A logarithmic growing bacterial culture was adjusted to a McFarland corresponding to 1 × 10^8 cfu/mL using a McFarland counter (DensiCHEK® plus, bioMerieux, Marcy-l’Étoile, France). Finally, a bacterial suspension of 1 × 10^6 cfu/mL (further diluted in MHB II) was added to each peptide-conjugate concentration. Thus, the final bacterial concentration in each well was 5 × 10^5 cfu/mL. The bacteria were incubated at 37 ± 1 °C (for A. bohemicus: 30 ± 1 °C) overnight and the bacterial growth was analyzed after 18 to 20 h. The MIC was defined as the lowest concentration of substance without any visible growth. Vancomycin and colistin sulfate were purchased from Sigma-Aldrich Chemie GmbH, München, Germany and Carl Roth GmbH, Karlsruhe, Germany.

[2] = test system: Acinetobacter bohemicus (DSM 100419); assay: as above; assay type: cell-based; parameters: key to MIC value: MIC in μg/mL (lowest concentration without visible growth); conditions: 30 ± 1 °C; for MIC value: Table S2, n=3, no unit given (main text uses µg/mL)
Protocol: as §1

[3] = test system: Acinetobacter bohemicus (DSM 100419); assay: Minimal bactericidal concentration (MBC); assay type: cell-based; conditions: Table S2, n=3; unit inferred; lowest concentration killing 99.9% of the inoculum; agar 24 h, 30 ± 1 °C
Protocol: (§2) Minimal bactericidal concentrations (MBCs) were determined by pipetting 3 µL of each broth dilution solution without visible growth onto a new agar plate. The agar plates were incubated at 37 ± 1 °C (for A. bohemicus: 30 ± 1 °C) for 24 h and were again analyzed with respect to bacterial growth. MBC is defined as the lowest concentration killing 99.9% of the inoculum.

[4] = test system: Rothia kristinae (DSM 20032); assay: Minimal bactericidal concentration (MBC); assay type: cell-based; conditions: Table 3 of supplement, n=3; unit inferred; lowest concentration killing 99.9% of the inoculum; agar 24 h, 37 ± 1 °C
Protocol: as §2

[5] = test system: red blood cells; assay type: cell-based, human
Protocol: A hemolysis assay was performed using heparinized blood for Pep19-4LF, Pep19-2.5, C6-Pep19-short, C11-Pep19-short, and C18-Pep19-short to test the toxicity against red blood cells and selectivity against bacterial cells. A 600 µM stock solution of each peptide was prepared in 0.9% NaCl. Heparinized blood was taken from three individual fasted, healthy volunteers. To purify the erythrocytes, the blood was centrifuged at 2500 rpm for 10 min and the supernatant was removed. The cell-pellet was resuspended in standard PBS. The centrifugation step was repeated for three times until the supernatant was visibly clear. A 96-well v-bottom plate (Greiner Bio-One International GmbH, Kremsmünster, Austria) was loaded as follows: row 1 (A1-H1) was preloaded with 100 µL of 600 µM peptide stock solution and row 12 (A12-H12) was preloaded with 50 µL 10% Triton X-100 (PerkinElmer, Boston, USA) and served as a positive control. […] Fifty µL of the supernatant was then transferred to a new 96-well flat-bottom plate (Greiner Bio-One International GmbH, Kremsmünster, Austria) and the absorbance was measured at a wavelength of 554 nm, using an Infinite M200 PRO microplate reader (Tecan Trading, Maennedorf).
Hemolysis was calculated with the following equation: Hemolysis [%]= Aconjugate− Ablank/ATriton− Ablank

[6] = test system: Enterococcus faecium (UL602570*, clinical isolate, vanA-resistant); assay: Minimal inhibitory concentration (MIC), broth microdilution; assay type: cell-based; conditions: cation-adjusted MHB II, 5 × 10^5 cfu/mL, 37 ± 1 °C, read after 18 to 20 h, n = 3
Protocol: as §1

[7] = test system: Staphylococcus aureus (ATCC 25923); assay: as above; assay type: cell-based; conditions: cation-adjusted MHB II, 5 × 10^5 cfu/mL, 37 ± 1 °C, read after 18 to 20 h, n = 3
Protocol: as §1

[8] = test system: Rothia kristinae (DSM 20032); assay: Time-kill studies; assay type: cell-based; conditions: for time until all bacteria killed: n=3
Protocol: Time–kill studies were performed in accordance with CLSI guidelines. Therefore, Rothia kristinae DSM 20032 was adjusted to a concentration of 1 x 10^8 cfu/mL and further diluted to 1 × 10^6 cfu/mL in cation-adjusted MHB II. According to the previous determined MIC values of Pep19-4LF, C11-Pep19-4LF, and bacitracin (positive control) (Sigma Aldrich Chemie GmbH, München, Germany), samples were taken for 4 × MIC, 2 × MIC, 1 × MIC, and 0.5 × MIC after 30 min, 1 h, 2 h, 4 h, and 8 h. These samples were diluted in sterile saline and 10 µL of each sample was loaded onto agar plates. A bacterial suspension of 1 × 10^6 cfu/mL served as a growth control. Incubation occurred at 37 ± 1 °C and all counted colonies were recalculated to the colony number in the original inoculum.

[9] = assay type: physicochemical
Description: The high MIC value of Pep19-short indicates the importance of a hydrophobic moiety for this synthetic antimicrobial peptide. […] If the length of the fatty acid is too short, the interaction between the peptide conjugate and components of the bacterial cell membrane might be unfavorable, thus leading to loss of efficiency. Fatty acids of medium chain length enable a stable plateau of low MIC values, indicating a more efficient interaction between the peptide conjugate and bacterial cells. […] A detailed interaction between Pep19 peptides and membrane-bound toxins was previously described by Correa et al.. […] A hypothesized mechanism for this interaction represents the reorganization of the bacterial membrane leading in an inability to maintain the osmotic pressure. Here, the positively-charged amino acids of the peptide conjugate might interact with the negatively-charged compounds of the bacterial cell wall and the hydrophobic part interacts with hydrophobic lipids of the bacterial membrane. Several mechanisms for a membrane disruption by amphiphilic peptides were further described by Sato and Feix. With respect to the parent peptide Pep19-4LF, the hydrophobic moiety was located at the C-terminus. As the synthesis leads to peptides that are linked to the resin via their C-terminus, the fatty acids were linked to the free N-terminus of the peptide. […]

[10] = rat, in vivo, iv
Protocol: For this purpose, the tyrosine residues of the peptides were radiolabeled with ^125I (Hartmann Analytic GmbH, Braunschweig, Germany) using the chloramine-T method [28]. Free ^125I was separated by preparative HPLC as previously described by Schieck et al. [22]. Approximately 2 to 4 MBq of the radiolabeled peptides was injected intravenously into the tail vein and images were recorded immediately post injection and after 1 h, 2 h, 3 h, 5 h, and 24 h. Scintigraphical images were obtained by using a γ-camera (Gamma Imager, Biospace Lab, Paris, France).

**Q.** What does the source list for `CCCCCC(=O)NCC(=O)N[C@@H](CCCCN)C(=O)N[C@@H](CCCCN)C(=O)N[C@@H](Cc1ccc(O)cc1)C(=O)N[C@@H](CCCNC(=N)N)C(=O)N[C@@H](CCCNC(=N)N)C(=O)N[C@@H](Cc1ccccc1)C(=O)N[C@@H](CCCNC(=N)N)C(=O)N[C@@H](Cc1c[nH]c2ccccc12)C(=O)N[C@@H](CCCCN)C(=O)N[C@@H](Cc1ccccc1)C(=O)N[C@@H](CCCCN)C(=O)NCC(=O)N[C@@H](CCCCN)C(N)=O` [C6-Pep19-short] (Hexanoyl-GKKYRRFRWKFKGK-NH2)?
**A.** MIC value [1]: 16 µg/mL (≈ 8.07 µM); MIC value [2]: 16; MBC value [3]: 16 µg/mL (≈ 8.07 µM); MBC value [4]: 32 µg/mL (≈ 16.1 µM); hemolytic activity [5]: no hemolytic activity

**Q.** With GKKYRRFRWKFKGKLFLFG-NH2 [Pep19-4LF] as the compound, how does the MIC [6] read?
**A.** 8 µg/mL

**Q.** What about the MIC value [1] of the same compound?
**A.** 8 µg/mL

**Q.** And the MIC [7]?
**A.** 32 µg/mL

**Q.** And the MIC value [2]?
**A.** 8

**Q.** And the MIC ([2]; broth microdilution, cation-adjusted MHB II, 5 × 10^5 cfu/mL, read after 18 to 20 h, n = 3)?
**A.** 8 µg/mL

**Q.** And the MBC value [3]?
**A.** 8 µg/mL

**Q.** What about the MBC value [4] of the same compound?
**A.** 8 µg/mL

**Q.** What about the “change in number of cfu/mL” value ([8]; 0.5 × MIC, 0 to 8 h, n = 3) of the same compound?
**A.** only a small decrease in the number of cfu/mL

**Q.** And the “time until all bacteria killed” value ([8]; 1 × MIC)?
**A.** > 8 h

**Q.** And the “time until all bacteria killed” value ([8]; 2 × MIC)?
**A.** 1 h

**Q.** And the “time until all bacteria killed / no detectable cfu” value ([8]; 4 × MIC, 1 × 10^6 cfu/mL in MHB II, 37 °C, n = 3)?
**A.** 30 min

**Q.** And the mode of action ([8]; 4 × MIC, n = 3)?
**A.** bactericidal mode of action

**Q.** And the solubility in water [9]?
**A.** very low solubility in water

**Q.** And the “speed of elimination compared among the peptides” value [10]?
**A.** slowest elimination
